Reference: patent publication US7183440B2, “Pharmaceutically useful compounds” (priority 2005, dated 2007)
Where two headings read alike, the source gives them in different places.

Tests used:
in vitro [1] = assay type: cell-based; conditions: human
Protocol: HeLa cells were plated in 96-well microtiter plates in 100 μl culture medium (4×10^4/well). After 20 hours, the cells were exposed to the test compounds at different dilutions and incubated for the next 8 h at 37° C. in a 5% CO2 humidified atmosphere. After 6 h incubation, the Alamar Blue was added in an amount equal to 10% of the culture volume (10 μl). Two hours after the addition of the Alamar Blue, the fluorescence was measured using a Victor 1420 microplate reader.

NF-κB [2] = assay: NF-κB-dependent luciferase reporter gene assay in HeLa κB-transformed cells stimulated with TPA; assay type: cell-based, human
Protocol: (§1) HeLa cell clone 13B, stably transfected with a luciferase reporter plasmid controlled by the human hsp70 promoter, and HeLa κB-transformed cells, stably transfected with a luciferase reporter plasmid controlled by a synthetic NF-κB-STM construct, were maintained in DMEM medium supplemented with 10% FBS, L-glutamine (2 mM) and G418 (250 μg/ml) at 37° C. in a 5% CO2 humidified atmosphere.
(§2) Cells were seeded at a density of 4×10^4 cells/well in 96-well plates. After 18–20 h, the medium was removed and cells were treated for 8 h with the test compounds (100 μl) at the appropriate dilutions in serum-free medium. For the NF-κB-dependent reporter gene assay, cells were stimulated with TPA (25 ng/ml) 2 h after exposure to the compounds.
(§3) After incubation, the medium was removed and cells were lysed in 10 μl of lysis buffer. The luciferase activity was determined by adding 100 μl of substrate and measuring the release of light using a Victor 1420 microplate reader (Wallac, Finland).
(§4) The fragment Kpn I-BamH I from the pGL3 basic vector containing the luciferase gene (PROMEGA) was inserted in the pcDNA3 vector (INVITROGEN) digested with Bgl II-KpnI. (This digestion removes the CMV-promoter from pcDNA3.) The resulting new vector was digested with Kpn I-Hind III and a promoter containing a ‘5×NF-κB binding sites-TATA box’ sequence was inserted upstream of the luciferase gene. This vector has been named STM.
(§5) To obtain stable HeLa cell lines expressing the luciferase gene under the control of NF-κB, HeLa cells were transfected (using lipofectamine plus GIBCO) with the STM-Pvu I linearized vector, and selected for 20 days with G418 (800 μg/ml). After selection, the resistant HeLa cell pool was controlled (in quadruplicate samples) for luciferase activity after stimulation with TNFα, IL-1 and TPA.
(§6) The AC200/μM for HSF is the concentration at which the tested compound doubled the HSF activity in this assay. The IC50/μM for NF-κB is the concentration at which the tested compound halved the NF-κB activity in this assay. […] The LC50/μM is the concentration at which the tested compound killed half the cells in each assay. […] (n.d. means not done)

Monkey kidney 37RC cells = assay type: cell-based; conditions: concentration 100% toxic to uninfected 37RC cells, visually by microscopy
in vitro [3] = assay type: cell-based; conditions: monkey, 50% lethal dose/concentration, neutral red assay, 37RC cells, read-out: LC50/μM
Protocol: Cell viability was determined using the Neutral Red assay.

HSF = HSF activation, luciferase reporter controlled by the human hsp70 promoter in HeLa cell clone 13B; assay type: cell-based; conditions: read-out: HSF AC200/μM
Protocol: as §1, §2, §3, §6

Sendai virus = assay: Replication of Sendai virus in 37RC cells, virus yield by haemagglutinin titration; assay type: cell-based; conditions: Respirovirus muris; 50% inhibitory dose/concentration at 24 hours, Sendai virus in 37RC cells; read-out: ID50/μM
Protocol: Monkey kidney 37RC cells were grown at 37° C. in RPMI medium supplemented with 5% foetal bovine serum (FBS), L-glutarine (2 mM) and antibiotics. Sendai virus was grown in the allantoic cavity of 10-day-old embryonated eggs. Viral titre was expressed in haemagglutinating units (HAU) per ml; haemagglutinin titration was done according to standard procedures, as described in C. Amici et al. (J. Virol. 68: 6890–6899, 1994). […] Confluent 37RC monolayers were infected with Sendai Virus (5 HAU/ml) for 1 h at 37° C. After 1 hour incubation, viral inoculum was removed and cells were treated with the test compounds at different concentrations. Virus yields were determined 24 h post infection by haemagglutinin titration. Mock-infected cells were treated identically and processed for cytotoxicity assay (Neutral Red assay) at the same time (see below). The results were expressed as HAU/ml (each point represents the mean of duplicate samples).

[4] = Blood pressure of the anaesthetized rat, intravenous infusion; assay type: in vivo; conditions: doses from 30 μg/kg/min
Source text: Most prostaglandins have strong effects on vascular smooth muscle, and will lower blood pressure in animals and humans. A compound can be tested for its effect on the blood pressure of the anaestheized rat. Prostaglandins A1 and E1 can be used for comparison. Male Wistar rats were anaesthetized and test drugs can be infused intravenously. Blood pressure and heart rate can be recorded from the femoral artery. […] It can be determined whether or not a test compound affects blood pressure at various dosages. As a control, solvent alone can be used.

NF-κB [5] = assay: Luciferase activity of NF-κB-LUC transfected HeLa cell pool after stimulation; assay type: cell-based, human; conditions: resistant HeLa cell pool, quadruplicate samples; control 1369±149
Source text: as §4, §5

NF-κB [6] = conditions: at the same concentration (125–500 μM); cited from earlier work
HSF1 = conditions: cited from earlier work
HeLa cells = assay: in vitro; conditions: read-out: Toxicity Neutral Red LC50/μM; HeLa cells; concentration that killed half the cells
Protocol: This assay was carried out on HeLa cells using a technique analogous to that described below in Example 36(b) for Monkey Kidney 37RC cells.
as §6
Cell viability was determined using the Neutral Red assay. 37RC cells were seeded at density of 6×10^4 cells/well in 24-well plates and incubated for 24 h. Confluent 37RC monolayers were treated with the test compounds at different dilutions for 24 h at 37° C. After incubation, the medium was removed and the cells were incubated with RPMI medium containing 40 μg/ml Neutral Red dye (500 μl/well). After 2 h at 37° C., the monolayers were washed with phosphate-buffered saline (PBS) and then with a solution containing 1% CaCl2 and 0.5% formaldehyde. After washing, a solution containing 1% acetic acid/50% ethanol was added to the monolayers (250 μl/well). After 10 min at room temperature, the absorbance was determined with a microplate reader (Victor 1420, Wallac) at 540 nm.

## CC(C)/C=C1/C(=O)C=CC1NC(=O)c1ccccc1 (stereo not drawn) [CTC-172, N-(5-iso-Butylidene-4-oxocyclopent-2-enyl)-benzamide]
In vitro [1]
  CC50 at 8 h: 50 µM
NF-κB [2]; Homo sapiens, concentration that halved NF-κB activity, HeLa reporter cells, TPA 25 ng/ml, 8 h treatment
  IC50: < 6.2 µM
Monkey kidney 37RC cells
  TD100/μM: 10 µM
In vitro [3]
  CC50 at 24 h: 4 µM
HSF; Homo sapiens, concentration at which the compound doubled HSF activity, HeLa clone 13B, 8 h treatment
  EC (2-fold HSF activity): < 6.2 µM
Sendai virus
  IC50: 0.3 µM

## CCCCC[C@H](O)/C=C/[C@H]1C=CC(=O)[C@@H]1CCCCCCC(=O)O [Prostaglandin A1]
[4]
  effect on blood pressure: dose-dependant falls in blood pressure

## CCCCC[C@H](O)/C=C/[C@H]1[C@H](O)CC(=O)[C@@H]1CCCCCCC(=O)O [Prostaglandin E1]
[4]
  effect on blood pressure: dose-dependant falls in blood pressure

## CCCCCCCCCCCCCC(=O)O[C@@H]1[C@@H](C)[C@@]2(O)[C@@H](C=C(CO)C[C@]3(O)C(=O)C(C)=C[C@@H]23)[C@H]2C(C)(C)[C@]12OC(C)=O [TPA]
NF-κB [5]
  luciferase activity: 7181±444

## O=C1C=CCC1 [cyclopent-2-en-1-one]
NF-κB [6]
  block of NF-κB activation by chemical or physiological inducers: able to block NF-κB activation
HSF1
  concentration able to activate HSF1 and trigger synthesis of HSP70: 125 to 500 µM

## TNFα
NF-κB [5]
  luciferase activity: 6111±1231

## [(1R,2S)-2-(Naphthalen-2-ylsulfanyl)-4-oxocyclopentyl]-carbamic acid methyl ester; compound with benzene [CTM-237]
NF-κB [2]
  IC50: 9 µM
HSF
  EC (2-fold HSF activity): 28 µM
HeLa cells
  CC50: 183 µM
